Results reported in US20230313140A1, “METHOD FOR PREPARING T CELLS FOR ADOPTIVE T CELL THERAPY” (St. Jude Children's Research Hospital, Inc., priority 2022, published 2023).

Columns and labels:
[1] = tested on: first-division c-Myc^high CD8+ T cells; experiment: Adoptive transfer and in vivo influenza infection and challenge, donor cell frequency; set-up: species or system mouse; conditions: c-Myc^high cells treated 2 hours with 200 nM after sorting, transferred into recipients; A/X-31-OVA day 0, challenge day 30; spleen
GFP-c-Myc = type: cell-based, mouse; conditions: sorted first-division cells treated for 2 hours, 200 nM
Sirt1 = experiment: Immunofluorescence imaging of Sirt1 distribution between dividing sister cells; conditions: silvestrol 200 nM or Hippuristanol 500 nM, last hour of activation
Procedure: (§1) Murine CD8^+ T Lymphocytes. For CD8^+ T cell stimulation, splenocytes obtained from wild-type animals were enriched for antigen presenting cells (APCs) using CD11c MicroBeads (Miltenyi Biotec) and pulsed with 5 nM of [sequence] peptide (SEQ ID NO:1; AnaSpec Inc.) for 1 hour at 37° C. CD8^+ T cells were isolated from lymph nodes using the Dynabeads Untouched Mouse CD8 Cells Kit (Invitrogen) and overlain onto the peptide-pulsed APCs. […] Whenever assessment of cell division was required, CD8^+ T cells were labeled with a fluorescent dye sold under the tradename CELLTRACE® Violet (CTV) Cell Proliferation Kit (Invitrogen) at 5 μM per 1×10^7 cells for 10 minutes at 37° C. For in vivo stimulation, CTV-labeled CD8^+ T cells were transferred by tail vein injection of wild-type recipients. Twenty-four hours after transfer, recipients were immunized by subcutaneous injection of 50 μg of [sequence] peptide (SEQ ID NO:1) into the neck region. Donor cells were obtained from axillary and brachial lymph nodes 8 hours after immunization. CD8^+ T cells were cultured in RPMI 1640 (Gibco) supplemented with 10% (v/v) heat-inactivated fetal bovine serum (FBS), lx MEM non-essential amino acids (Gibco), 1 mM Sodium pyruvate (Gibco), 2 mM L-glutamine (Gibco), 55 μM 2-mercaptoethanol (Gibco), 50 U/ml penicillin and 50 μg/ml streptomycin (Corning) at 37° C. in 5% CO2. […]

[2] = tested on: c-Myc bound to chromatin at c-Myc binding sites; experiment: CUT&RUN ChIP-seq of c-Myc bound to chromatin in first-division CD8+ T cells; type: cell-based, mouse; conditions: brief treatment of activated CD8+ T cells; 200 nM, 2 hours; chromatin immunoprecipitation
Procedure: CHIP-Sequencing. First-division CD8^+ T cells were sorted into medium with or without 200 nM silvestrol and cultured for additional 2 hours. CUT&RUN ChIP-seq experiments were performed as previously described (Meers et al. (2019) Elife 8) with slight modifications. […] Libraries were quantified using Qubit and size distribution was determined by Agilent 4200 TapeStation analysis before 15 million paired-end sequencing was performed.
Analysis for CHIP-seq Data. Paired-end sequencing reads were trimmed with Trim Galore (version 0.5.0) with default parameters. Reads were aligned to the reference mouse mm10 assembly using Bowtie 2 (version 2.3.5.1) (Langmead & Salzberg (2012) Nat. Methods 9:357-359) with settings—end-to-end—very-sensitive—nomixed—no-discordant-q—phred33-I 10-X 700. The resulting alignments, recorded in BAM file, were sorted, indexed, and marked for duplicates with Picard MarkDuplicate function (version 2.19.0, Broad Institute). […] C-Myc occupancy was normalized by scaling to 1 million mapped reads using BEDTools (version 2.27.1) (Quinlan & Hall (2010) Bioinformatics 26:841-842) and bedGraphToBigWig (version 377) (Kent et al. (2010) Bioinformatics 26:2204-2207) and visualized as heatmaps using deepTools plotHeatmap (version 3.2.1) (Ramirez et al. (2016) Nucl. Acids Res. 44:W160-165).

c-Myc = experiment: Immunofluorescence imaging of c-Myc distribution in first-division sister cells; conditions: treatment immediately prior to the first division (last hour of activation); silvestrol 200 nM, Hippuristanol 500 nM
Procedure: as §1

[3] = tested on: c-Myc association with RPL26 and S6; experiment: STORM analysis of c-Myc translating polysomes; type: cell-based, mouse; conditions: brief treatment, 91 μM
Procedure: Murine CD8^+ T Lymphocytes. […] Stochastic Optical Reconstruction Microscopy (STORM). […] PFA was added to the culture at a final concentration of 4% (v/v), the cell suspension was transferred into […], and fixation continued for 10 minutes at RT. During all sample preparation, cells were pelleted for 3 minutes at 2000 rpm between each buffer. […] Reactive groups were quenched in 20 mM glycine, and non-specific antibody binding was blocked in TBS+2% BSA. […] Cells were washed with TBS and incubated with the following secondary antibodies for 1 hour at RT: CF488-labeled donkey anti-rat (1:1000, Biotium), CF568-labeled donkey anti-Goat (1:1000, Biotium), and AF647-labeled donkey anti-rabbit (1:1000, Jackson ImmunoResearch). Following two washes with TBS, cells were post-fixed in 1% (v/v) PFA for 5 minutes at RT, pelleted and resuspended in 20 μl cell culture matrix sold under […] drop of the cell suspension was placed into a cryomold, overlaid with Tissue Freezing Medium (Fisher Scientific Company) and snap frozen on dry ice. […] cryosections were placed on poly-L-lysine coated #1.5 18-mm coverslips (Electron Microscopy Sciences) and affixed to 35-mm dishes (Mattek) using epoxy resin. […] At least 25 cells from two independent experiments were analyzed. […]

cytosolic c-Myc = experiment: Imaging of polarization of cytosolic c-Myc in activated, undivided CD8+ T cells; conditions: Dynarrestin 25 μM, Ciliobrevin D 50 μM
Procedure: (§2) Murine CD8^+ T Lymphocytes. For CD8^+ T cell stimulation, splenocytes obtained from wild-type animals were enriched for antigen presenting cells (APCs) using CD11c MicroBeads (Miltenyi Biotec) and pulsed with 5 nM of [sequence] peptide (SEQ ID NO:1; AnaSpec Inc.) for 1 hour at 37° C. CD8^+ T cells were isolated from lymph nodes using the Dynabeads Untouched Mouse CD8 Cells Kit (Invitrogen) and overlain onto the peptide-pulsed APCs. Alternatively, CD8^+ T cells were stimulated on plate-bound anti-CD3ε (1 μg/ml, Bio X Cell), anti-CD28 (1 μg/ml, Bio X Cell), and recombinant human ICAM (0.5 μg/ml) produced in insect cells (Huppa et al. (2010) Nature 463:963-967); or by incubation with PMA (10 ng/ml, MedChemExpress) and Ionomycin (1 μM, MedChemExpress). Whenever assessment of cell division was required, CD8^+ T cells were labeled with a fluorescent dye sold under the tradename CELLTRACE® Violet (CTV) Cell Proliferation Kit (Invitrogen) at 5 μM per 1×10^7 cells for 10 minutes at 37° C. […]
(§3) The distribution of proteins in undivided cells was analyzed using Imaris 9.5 software (Oxford Instruments).

TORC1 = experiment: Imaging of polarization of TORC1 activity (phospho-mTOR) in activated, undivided CD8+ T cells; conditions: Dynarrestin 25 μM, Ciliobrevin D 50 μM
Procedure: as §2, §3

ribosomal protein S6 = experiment: General TORC1 activity measured by phosphorylation of ribosomal protein S6; type: cell-based, mouse; conditions: activated, undivided cells treated with dynein inhibitors
Description: Murine CD8^+ T Lymphocytes. […] Immunofluorescence Staining and Imaging.

p-eIF4GI = experiment: Imaging of polarization of p-eIF4GI in activated, undivided CD8+ T cells; conditions: Dynarrestin 25 μM, Ciliobrevin D 50 μM
Procedure: as §2, §3

| Compound | Sirt1 protein distribution between dividing sister cells (Sirt1) | polarization of cytosolic c-Myc (cytosolic c-Myc) | polarization of TORC1 (TORC1) | TORC1 activity in general, phosphorylation of ribosomal protein S6 (ribosomal protein S6) | polarization of p-eIF4GI (p-eIF4GI) | other results |
| --- | --- | --- | --- | --- | --- | --- |
| COC(=O)[C@H]1[C@@H](O)[C@@]2(O)c3c(OC)cc(O[C@@H]4O[C@@H]([C@H](O)CO)CO[C@H]4OC)cc3O[C@@]2(c2ccc(OC)cc2)[C@@H]1c1ccccc1 [silvestrol] | unaffected |  |  |  |  | frequency of donor cells on day 9 after A/PR/8-OVA challenge (FIG. 2) [1]: detected at numbers comparable to those found for sorted c-Myc^low cells; c-Myc levels in c-Myc^high cells (GFP-c-Myc MFI, FIG. 1) (GFP-c-Myc): reduce c-Myc levels in c-Myc^high cells to those observed in c-Myc^low cells; c-Myc bound to chromatin at c-Myc binding sites [2]: greatly reduced; c-Myc asymmetry in first-division sister cells (c-Myc): rapid equilibration of c-Myc levels |
| C[C@H]1C[C@@]2(O[C@H]3C[C@H]4[C@@H]5CC[C@H]6C[C@H](O)CC[C@]6(C)[C@H]5[C@@H](O)C[C@]4(C)[C@H]3[C@@]2(C)O)OC1(C)C [Hippuristanol] | unaffected |  |  |  |  |  |
| COc1ccc(C[C@H](N)C(=O)N[C@H]2[C@@H](O)[C@H](n3cnc4c(N(C)C)ncnc43)O[C@@H]2CO)cc1 [puromycin] |  |  |  |  |  | association of c-Myc with RPL26 and S6 [3]: significantly reduced |
| N#CC(=C(O)c1ccc(Cl)cc1Cl)c1nc2cc(Cl)ccc2c(=O)[nH]1 [Ciliobrevin D] |  | abrogated the polarization | abrogated the polarization | remained unaffected | abrogated the polarization |  |
| CCOC(=O)c1sc(Nc2ccc(F)cc2F)nc1-c1ccc(N(CC)CC)cc1 [Dynarrestin] |  | abrogated the polarization | abrogated the polarization | remained unaffected | abrogated the polarization |  |
